ChEMBL document CHEMBL1201862, “PubChem BioAssay data set” (2004)
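Step 1: Grow cells in 96-well plates. Step 2: Expose to compound for 48 hours at 5 concentrations. Step 3: Interpolate endpoints linearly; if unreached, use highest concentration. GI50 is the concentration that inhibits growth by half.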 Active and inactive are the calls of the source. Cut-off read from the data, not from the text of the source: active = GI50 up to about 1.1 µM and inactive = higher.

Tests used:
Test in all cases: inhibition of tumour cell growth, NCI panel, 48 h
SNB-75 = tested on: SNB-75
NCI-H23 = tested on: NCI-H23
ACHN = tested on: ACHN
SK-MEL-28 = tested on: SK-MEL-28
RXF 393 = tested on: RXF 393
TK-10 = tested on: TK-10
HOP-92 = tested on: HOP-92
UACC-62 = tested on: UACC-62
COLO 205 = tested on: COLO 205
IGROV-1 = tested on: IGROV-1
SN12C = tested on: SN12C
HCC 2998 = tested on: HCC 2998
SW-620 = tested on: SW-620
SK-MEL-2 = tested on: SK-MEL-2
UACC-257 = tested on: UACC-257
SK-OV-3 = tested on: SK-OV-3
SF-268 = tested on: SF-268
RPMI-8226 = tested on: RPMI-8226
UO-31 = tested on: UO-31
SF-295 = tested on: SF-295

Measured: GI50

CCNc1cnc2c(n1)c(=O)n(C)c(=O)n2C
inactive: SNB-75 48.9 µM | NCI-H23 > 100 µM | ACHN > 100 µM | SK-MEL-28 > 100 µM | RXF 393 84.9 µM | TK-10 > 100 µM | HOP-92 > 100 µM | UACC-62 > 100 µM | COLO 205 > 100 µM | IGROV-1 > 100 µM | SN12C > 100 µM | HCC 2998 > 100 µM | SW-620 > 100 µM | SK-MEL-2 > 100 µM | UACC-257 > 100 µM | SK-OV-3 > 100 µM | SF-268 > 100 µM | RPMI-8226 > 100 µM | UO-31 > 100 µM | SF-295 > 100 µM

CNS(=O)(=O)NN(C)S(=O)(=O)c1ccc(F)cc1
inactive: SNB-75 47 µM | NCI-H23 > 100 µM | ACHN > 100 µM | SK-MEL-28 > 100 µM | RXF 393 > 100 µM | TK-10 > 100 µM | HOP-92 > 100 µM | UACC-62 > 100 µM | COLO 205 > 100 µM | IGROV-1 > 100 µM | SN12C > 100 µM | HCC 2998 > 100 µM | SW-620 > 100 µM | SK-MEL-2 > 100 µM | UACC-257 > 100 µM | SK-OV-3 > 100 µM | SF-268 > 100 µM | RPMI-8226 > 100 µM | UO-31 > 100 µM | SF-295 > 100 µM

COc1cc2c(cc1OC)-c1cc3ccccc3c[n+]1CC2
inactive: SNB-75 > 100 µM | NCI-H23 > 100 µM | ACHN > 100 µM | SK-MEL-28 > 100 µM | RXF 393 > 100 µM | TK-10 > 100 µM | HOP-92 > 100 µM | UACC-62 > 100 µM | COLO 205 37.6 µM | IGROV-1 > 100 µM | SN12C 39.6 µM | HCC 2998 > 100 µM | SW-620 > 100 µM | SK-MEL-2 > 100 µM | UACC-257 89.5 µM | SK-OV-3 > 100 µM | SF-268 27.5 µM | RPMI-8226 36.6 µM | UO-31 > 100 µM | SF-295 74.8 µM

CC1(C)O[C@@H](C[C@]2(C#N)C[C@H](CCl)OC(C)(C)O2)C[C@@H](C#N)O1
inactive: SNB-75 > 100 µM | NCI-H23 > 100 µM | ACHN > 100 µM | SK-MEL-28 > 100 µM | RXF 393 > 100 µM | TK-10 > 100 µM | HOP-92 78.9 µM | UACC-62 > 100 µM | COLO 205 > 100 µM | IGROV-1 > 100 µM | SN12C > 100 µM | HCC 2998 > 100 µM | SW-620 > 100 µM | SK-MEL-2 > 100 µM | UACC-257 > 100 µM | SK-OV-3 > 100 µM | SF-268 > 100 µM | RPMI-8226 > 100 µM | UO-31 > 100 µM | SF-295 > 100 µM

O=C1C(=O)c2ccccc2C=C1[N+](=O)[O-]
inactive: SNB-75 > 100 µM | NCI-H23 34.2 µM | ACHN > 100 µM | SK-MEL-28 > 100 µM | RXF 393 24.4 µM | TK-10 > 100 µM | HOP-92 55.8 µM | UACC-62 27.7 µM | COLO 205 > 100 µM | IGROV-1 13.8 µM | SN12C 29.4 µM | HCC 2998 80.9 µM | SW-620 32.9 µM | SK-MEL-2 28.2 µM | UACC-257 25.2 µM | SK-OV-3 > 100 µM | SF-268 38.3 µM | RPMI-8226 31 µM | UO-31 > 100 µM | SF-295 97.3 µM

C=C1C[C@@H]2C[C@@H](C)CC(O)[C@]2(CCCN)C1O (stereo not given in full)
inactive: SNB-75 > 100 µM | NCI-H23 > 100 µM | ACHN > 100 µM | SK-MEL-28 > 100 µM | RXF 393 > 100 µM | TK-10 > 100 µM | HOP-92 > 100 µM | UACC-62 > 100 µM | COLO 205 > 100 µM | IGROV-1 > 100 µM | SN12C > 100 µM | HCC 2998 > 100 µM | SW-620 > 100 µM | SK-MEL-2 > 100 µM | UACC-257 > 100 µM | SK-OV-3 > 100 µM | SF-268 > 100 µM | RPMI-8226 > 100 µM | UO-31 > 100 µM | SF-295 > 100 µM
